System: Saccharomyces cerevisiae ABC16-Green Monster
Experiment: growth inhibition at single dose (up to 150 µM), below the 70% cut-off for dose-response; higher = more potent
Details: 18 h; 30 °C; YPD
Procedure, shortened: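 Values are percent growth inhibition of drug-sensitive S. cerevisiae ABC16-Green Monster cells. Cells grown overnight in YPD at 30 °C were diluted to log phase (OD600 0.1–0.2), and each library compound was added at a single dose of 150 µM to 200 µl culture per well in 96-well plates, in biological duplicates, beside untreated cultures. OD600 was read at 0 h and after 18 h at 30 °C, and compounds under 70% in both replicates were not taken to dose-response.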

| Structure (SMILES) | growth inhibition at single dose [%] |
| --- | --- |
| CS(=O)(=O)N1CCCc2cc(-c3csc(Nc4ccccn4)n3)ccc21 | < 70 |
| CCc1sc(C(=O)Nc2cnc3ccccc3c2)cc1C | < 70 |
| CC(C)(C)c1cc(C(=O)Nc2cccnc2)cc(C(=O)Nc2cccnc2)c1 | < 70 |
| N=C1NC(=O)C(Cc2ccc(OC(F)(F)F)cc2)S1 (stereo unspecified) | < 70 |
| O=C(NCc1ccoc1)N1CCN(Cc2ccc3c(c2)OCO3)CC1 | < 70 |
| O=C(Nc1ccc2c(c1)OC1(CCCCC1)O2)c1ccc[nH]c1=O | < 70 |
| COc1ccc(C(=O)C(CCC(CNC(C)(C)C)C(=O)c2ccc(OC)cc2)CNC(C)(C)C)cc1 (stereo unspecified) | < 70 |
| O=C(O)c1c2c(nc3ccccc13)/C(=C/c1ccccc1Cl)CC2 | < 70 |
| Cc1ccc(C(=O)c2oc3ccc4c(C)cc(=O)oc4c3c2C)cc1 | < 70 |
| O=C(NCCc1c[nH]c2ccccc12)c1cc2ccccc2oc1=O | < 70 |
| CC(Nc1ncnc2sccc12)c1ccc(F)cc1 (stereo unspecified) | < 70 |
| CCCn1c(CNc2ccccc2O)nc2ccccc21 | < 70 |
| CC(C)(C)c1ccc(O)c(CNC2CCCCC2)c1 | < 70 |
| O=C(Nc1nc2ccc(OC(F)(F)F)cc2s1)c1cnccn1 | < 70 |
| Cc1[nH]c(-c2ccccn2)nc(=O)c1CC(=O)NC1CCCCCCC1 | < 70 |
| CCN(CC)C(=O)N1CCN(C)CC1 [Diethylcarbamazine] | < 70 |
| Cc1ccc(S(=O)(=O)/N=C2\C=C3N(CCO)CCOC3(O)c3ccccc32)c(C)c1 (stereo unspecified) | < 70 |
| Clc1ccc(CCNc2cc(-c3ccccc3)nc3ncnn23)cc1 | < 70 |
| Oc1ccc(C2=CCN(c3ncnc4ccccc34)CC2)cc1 | < 70 |
| O=C(Nc1ccccc1)c1cn(-c2ccc3c(c2)OCCO3)nn1 | < 70 |
| CCCCCCn1c(=N)n(CC(O)COc2cccc(C)c2)c2ccccc21 (stereo unspecified) | < 70 |

| Structure (SMILES) | growth inhibition at single dose [%] |
| --- | --- |
| COc1cc2c(cc1OC)C1=NNC(=O)C1=NC(C)(C)C2 | < 70 |
| N#Cc1nc(Cc2cccc3ccccc23)oc1N1CCN(C(c2ccccc2)c2ccccc2)CC1 | < 70 |
| OC1CCCCC1C1(NC(=S)Nc2ccccc2)CCCCC1 (stereo unspecified) | < 70 |
| Cc1cc(C)c(C#N)c(SCC(=O)N(C)Cc2cnn(-c3ccccc3)c2)n1 | < 70 |
| O=C(C1CCN(c2cc(-n3cccc3)ncn2)CC1)N1CCc2ccccc2C1 | < 70 |
| COc1ccc(CN2CCN(Cc3ccccc3)CC2)c(O)c1 | < 70 |
| Cc1ccc(C)c(Cn2c(N3CCC(C(=O)NCc4cccs4)CC3)nc3ccccc32)c1 | < 70 |
| CN1CCN(c2ncnc3c2[nH]c2ccc(Cl)cc23)CC1 | < 70 |
| COc1cc2c(cc1NC(=O)C(C)N1CCC(C(N)=O)CC1)oc1ccccc12 (stereo unspecified) | < 70 |
| O=C(Cn1ncc(Cl)c(Cl)c1=O)Nc1cc(S(=O)(=O)N2CCOCC2)ccc1Cl | < 70 |
| O=C(O)C1Cc2c([nH]c3ccccc23)C(c2ccc(Cl)cc2Cl)N1 (stereo unspecified) | < 70 |
| Cc1ccc(N2C3c4ccccc4N(S(=O)(=O)c4ccc(C)cc4)C2c2ccccc2N3S(=O)(=O)c2ccc(C)cc2)cc1 | < 70 |
| CNC(=O)c1ccc(CN(Cc2ccc(SC)cc2)Cc2ccco2)cc1 | < 70 |
| c1ccc2c(NCc3ccc(N4CCCC4)nc3)ncnc2c1 | < 70 |
| O=C(c1cnc2cc3c(cc2c1)OCCO3)c1cc(F)ccc1O | < 70 |
| O=C(NNc1cc(N2CCCC2)nc(N2CCCC2)n1)c1ccccc1 | < 70 |
| COc1cccc(OC)c1C(=O)Nc1ccc(Cl)c(-c2nc3ccccc3s2)c1 | < 70 |
| Cc1ccc(Cn2ccs/c2=N/C(=O)c2cc3c(s2)CCCCC3)cc1 | < 70 |
| CC(=O)O[C@H]1CC[C@]2(C)C3CC[C@]4(C)C(C5=CC(=O)OC5)CC[C@]4(O)C3CC[C@@H]2C1 (stereo partly specified) | < 70 |
| O=S(=O)(c1ccc2ccccc2c1)N1CCCC1c1nnc2ccccn12 (stereo unspecified) | < 70 |
| COC(=O)c1cccc2oc(-c3cccc(OC)c3NC(=O)c3cc(-c4ccccc4)on3)nc12 | < 70 |

| Structure (SMILES) | growth inhibition at single dose [%] |
| --- | --- |
| O=C(Cn1nnc2ccccc2c1=O)c1ccc(C2CCCCC2)cc1 | < 70 |
| CCN(CC(=O)Nc1ccccc1-c1ccccc1)Cc1nc(=O)c2ccccc2[nH]1 | < 70 |
| Cc1nc(NCc2ccc(N3CCN(C)CC3)nc2)c2c(-c3ccccc3)csc2n1 | < 70 |
| N=C(N)N/N=C/c1ccc(Cl)cc1Cl | < 70 |
| O=C(C1CCN(c2nnnn2-c2ccccc2)CC1)N1CCc2ccccc2C1 | < 70 |
| Cc1cc(C)c2cc(C(=O)Nc3ccc(N4CCN(C)CC4)nc3)[nH]c2c1 | < 70 |
| CS(=O)(=O)Cc1nc2ccccc2oc1=O | < 70 |
| CC1Cc2cc(C3=NNC(=NC4CC4)SC3)ccc2N1S(C)(=O)=O (stereo unspecified) | < 70 |
| Cc1cc([N+](=O)[O-])cc(S(=O)(=O)N(Cc2ccc(C(=O)NC3CC3)cc2)C2CC2)c1C | < 70 |
| Cc1nn(Cc2ccccc2)c(Cl)c1C(=O)NC1CCCCCC1 | < 70 |
| O=C(Nc1ccc(N2CCNCC2)nc1)c1oc(-c2ccccc2)nc1C(F)(F)F | < 70 |
| NC(=O)c1ccsc1NC(=O)CSc1ncc(-c2ccccc2)n1-c1ccccc1 | < 70 |
| CCc1c(C)c(=N)c2ccccc2n1C | < 70 |
| CC(C)(C)C1CCC(CC2=C(O)C(=O)c3ccccc3C2=O)CC1 (stereo unspecified) | < 70 |
| O=C(Nc1nc(CN2CCOCC2)cs1)c1ccc(-c2ccccc2)cc1 | < 70 |
| O=C(Nc1cccc(C2=NCCN2)c1)Nc1cccc(C2=NCCN2)c1 | < 70 |
| Cn1/c(=N/C(=O)c2ccc(=O)[nH]c2)sc2ccccc21 | < 70 |
| Cc1cc(C2=NNC(=NC3CC3)SC2)c(C)n1-c1ccccn1 | < 70 |
| COc1cc2c(cc1OC)CN(C(=O)c1ccc(OCC(F)(F)F)nc1)CC2 | < 70 |

Source: the supplement of paper PMC8837787
